Test results published in PubChem BioAssay AID330 (DTP/NCI, 2004).
Values joined by “and” are separate entries in the source; they are usually repeats but may differ in a detail not shown here. Equal entries are not always repeated. Toxic doses and inconclusive results are not listed.

Test system: P388 leukemia ip, CD2F1 mice, survival T/C
Test: NCI In Vivo Anticancer Drug Screen. Data for tumor model P388 Leukemia (intraperitoneal) in CD2F1 (CDF1) mice
Conditions: endpoint: median survival time, higher = longer survival
How it was run: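 Mice carrying the transplanted tumor received test compound or vehicle. Survival was recorded in each group, and the value is the treated-group measurement divided by that of the vehicle-treated control group.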

[1] = dose: 100.0 mg/kg/injection, schedule: Q01DX001 (ip), vehicle: Klucel (hydroxypropylcellulose) (HPC)
[2] = dose: 200.0 mg/kg/injection, schedule: Q01DX001 (ip), vehicle: Klucel (hydroxypropylcellulose) (HPC)
[3] = dose: 60.0 mg/kg/injection, schedule: Q01DX005 (ip), vehicle: saline with Tween-80
[4] = dose: 120.0 mg/kg/injection, schedule: Q01DX005 (ip), vehicle: saline with Tween-80
[5] = dose: 240.0 mg/kg/injection, schedule: Q01DX005 (ip), vehicle: saline with Tween-80
[6] = dose: 12.5 mg/kg/injection, schedule: Q01DX009 (ip), vehicle: Klucel (hydroxypropylcellulose) (HPC)
[7] = dose: 25.0 mg/kg/injection, schedule: Q01DX009 (ip), vehicle: Klucel (hydroxypropylcellulose) (HPC)
[8] = dose: 50.0 mg/kg/injection, schedule: Q01DX009 (ip), vehicle: Klucel (hydroxypropylcellulose) (HPC)
[9] = dose: 100.0 mg/kg/injection, schedule: Q01DX009 (ip), vehicle: Klucel (hydroxypropylcellulose) (HPC)
[10] = dose: 200.0 mg/kg/injection, schedule: Q01DX009 (ip), vehicle: Klucel (hydroxypropylcellulose) (HPC)
[11] = dose: 12.5 mg/kg/injection, schedule: Q01DX005 (ip), vehicle: saline with Tween-80
[12] = dose: 25.0 mg/kg/injection, schedule: Q01DX005 (ip), vehicle: saline with Tween-80
[13] = dose: 50.0 mg/kg/injection, schedule: Q01DX005 (ip), vehicle: Klucel (hydroxypropylcellulose) (HPC)
[14] = dose: 100.0 mg/kg/injection, schedule: Q01DX005 (ip), vehicle: Klucel (hydroxypropylcellulose) (HPC)
[15] = dose: 50.0 mg/kg/injection, schedule: Q01DX009 (ip), vehicle: saline with Tween-80
[16] = dose: 100.0 mg/kg/injection, schedule: Q01DX009 (ip), vehicle: saline with Tween-80
[17] = dose: 200.0 mg/kg/injection, schedule: Q01DX009 (ip), vehicle: saline with Tween-80

In the case of `COc1ccc2c(c1)[C@@]13CCCCC1[C@@H](C2)N(CC1CC1)CC3` (some centres not stated), the T/C [1] is reported as 100 % of control and the T/C [2] is reported as 100 % of control.

In the case of `COC(=O)N1c2ccccc2C(c2ccccc2)=NC1(C)C#N` (configuration not stated), the T/C [3] is reported as 98 % of control, the T/C [4] is reported as 99 % of control and the T/C [5] is reported as 100 % of control.

`Cc1ccc(-c2cnc3[nH]c(=O)[nH]c(=O)c3n2)cc1` was tested, and the T/C (dose: 100.0 mg/kg/injection, schedule: Q04DX002 (ip), vehicle: saline) was 97 % of control, the T/C (dose: 200.0 mg/kg/injection, schedule: Q04DX002 (ip), vehicle: saline) was 106 % of control and the T/C (dose: 400.0 mg/kg/injection, schedule: Q04DX002 (ip), vehicle: saline) was 91 % of control.

In the case of `O=S1(=O)C2C=CC1C(Br)C(Br)CC2` (configuration not stated), the T/C [6] is reported as 102 % of control, the T/C [7] is reported as 100 % of control and the T/C [8] is reported as 89 % of control. For the same compound, the T/C [9] was 96 % of control and the T/C [10] was 98 % of control.

`O=C1N[C@H]2[C@H](O)[C@H](O)[C@@H](O)[C@H](O)[C@@H]2c2cc3c(c(O)c21)OCO3` was tested, and the T/C (dose: 0.18 mg/kg/injection, schedule: Q01DX009 (ip), vehicle: saline + Tween-80 + alcohol) was 113 % of control, the T/C (dose: 0.37 mg/kg/injection, schedule: Q01DX009 (ip), vehicle: saline + Tween-80 + alcohol) was 122 % of control and the T/C (dose: 0.38 mg/kg/injection, schedule: Q01DX005 (iv), vehicle: other) was 105 % of control. For the same compound, the T/C (dose: 0.38 mg/kg/injection, schedule: Q01DX009 (ip), vehicle: saline + alcohol) was 119 % of control, the T/C (dose: 0.75 mg/kg/injection, schedule: Q01DX005 (ip), vehicle: other) was 122 % of control and the T/C (dose: 0.75 mg/kg/injection, schedule: Q01DX005 (ip), vehicle: saline + alcohol) was 116 % of control. The T/C (dose: 0.75 mg/kg/injection, schedule: Q01DX005 (iv), vehicle: other) was 105 % of control, the T/C (dose: 1.5 mg/kg/injection, schedule: Q01DX005 (iv), vehicle: other) was 106 % of control and the T/C (dose: 3.0 mg/kg/injection, schedule: Q01DX005 (iv), vehicle: other) was 108 % of control. The T/C (dose: 3.0 mg/kg/injection, schedule: Q01DX009 (ip), vehicle: saline + Tween-80 + alcohol) was 160 % of control, the T/C (dose: 3.0 mg/kg/injection, schedule: Q01DX009 (ip), vehicle: saline + alcohol) was 161 % of control and the T/C (dose: 3.12 mg/kg/injection, schedule: Q01DX009 (ip), vehicle: saline + alcohol) was 151 % of control. The T/C (dose: 6.0 mg/kg/injection, schedule: Q01DX005 (ip), vehicle: other) was 152 % of control, the T/C (dose: 6.0 mg/kg/injection, schedule: Q01DX005 (iv), vehicle: other) was 121 % of control and the T/C (dose: 6.0 mg/kg/injection, schedule: Q01DX009 (ip), vehicle: saline + Tween-80 + alcohol) was 162 % of control. The T/C (dose: 6.0 mg/kg/injection, schedule: Q01DX009 (ip), vehicle: saline + alcohol) was 165 % of control, the T/C (dose: 6.25 mg/kg/injection, schedule: Q01DX005 (ip), vehicle: saline + alcohol) was 105 % of control and the T/C (dose: 6.25 mg/kg/injection, schedule: Q01DX009 (ip), vehicle: saline + alcohol) was 155 % of control and 173 % of control. The T/C (dose: 12.0 mg/kg/injection, schedule: Q01DX005 (ip), vehicle: other) was 155 % of control, the T/C (dose: 12.0 mg/kg/injection, schedule: Q01DX005 (ip), vehicle: saline + alcohol) was 156 % of control and the T/C (dose: 12.5 mg/kg/injection, schedule: Q01DX009 (ip), vehicle: saline + alcohol) was 203 % of control.

In the case of `Cc1cc(C)nc(NS(=O)(=O)c2ccc(NC(=O)C(Cl)(Cl)Cl)cc2)n1`, the T/C (dose: 6.25 mg/kg/injection, schedule: Q01DX005 (ip), vehicle: saline with Tween-80) is reported as 104 % of control, the T/C [11] is reported as 101 % of control and the T/C [12] is reported as 94 % of control.

With `NC(=O)CCC1CC(=O)c2ccccc2C1` (configuration not stated) the T/C [1] was 94 % of control, the T/C [2] was 108 % of control and the T/C (dose: 400.0 mg/kg/injection, schedule: Q01DX001 (ip), vehicle: Klucel (hydroxypropylcellulose) (HPC)) was 92 % of control.

With `CSCCCNCc1ccc([N+](=O)[O-])cc1` the T/C (dose: 50.0 mg/kg/injection, schedule: Q01DX005 (ip), vehicle: saline) was 97 % of control and the T/C (dose: 100.0 mg/kg/injection, schedule: Q01DX005 (ip), vehicle: saline) was 111 % of control.

In the case of `CCCCNP(=O)(N1CC1)N1CC1`, the T/C (dose: 0.2 mg/kg/injection, schedule: Q04DX003 (ip), vehicle: saline) is reported as 95 % of control, the T/C (dose: 0.4 mg/kg/injection, schedule: Q04DX003 (ip), vehicle: saline) is reported as 104 % of control and the T/C (dose: 0.8 mg/kg/injection, schedule: Q04DX003 (ip), vehicle: saline) is reported as 118 % of control. The T/C (dose: 6.0 mg/kg/injection, schedule: Q04DX003 (ip), vehicle: saline) was 195 % of control, the T/C (dose: 6.25 mg/kg/injection, schedule: Q01DX009 (ip), vehicle: saline) was 172 % of control and the T/C (dose: 6.25 mg/kg/injection, schedule: Q04DX003 (ip), vehicle: saline) was 154 % of control. For the same compound, the T/C (dose: 12.5 mg/kg/injection, schedule: Q01DX009 (ip), vehicle: saline) was 118 % of control, the T/C (dose: 12.5 mg/kg/injection, schedule: Q04DX003 (ip), vehicle: saline) was 172 % of control and the T/C (dose: 25.0 mg/kg/injection, schedule: Q04DX003 (ip), vehicle: saline) was 86 % of control.

For `OCn1nnc2ccccc21`, the T/C [7] was 116 % of control, the T/C [8] was 102 % of control and the T/C [9] was 112 % of control. The T/C [10] was 106 % of control.

With `CN(C(=O)Nc1cccc2c(NC(=O)N(C)C3CCCCC3)cccc12)C1CCCCC1` the T/C [3] was 93 % of control, the T/C [4] was 87 % of control and the T/C [5] was 90 % of control.

`CCCCCCCCCCCCOC(=O)c1ccc(OP(=O)(O)OCc2ccccc2)cc1` was tested, and the T/C [6] was 104 % of control, the T/C [7] was 121 % of control and the T/C [8] was 103 % of control and 115 % of control.

For `Cc1ccc2c(C)cc(=O)oc2c1`, the T/C (dose: 100.0 mg/kg/injection, schedule: Q04DX003 (ip), vehicle: saline) was 102 % of control, the T/C (dose: 200.0 mg/kg/injection, schedule: Q04DX003 (ip), vehicle: saline) was 105 % of control and the T/C (dose: 400.0 mg/kg/injection, schedule: Q04DX003 (ip), vehicle: saline) was 108 % of control.

`Nc1ccccc1SSc1ccccc1C(=O)O` was tested, and the T/C [13] was 112 % of control and the T/C [14] was 112 % of control.

With `O=C(Cc1ccc(OCc2ccccc2)cc1)OCc1ccco1` the T/C [15] was 109 % of control, the T/C [16] was 100 % of control and the T/C [17] was 100 % of control.

`Cc1ccc(S(=O)(=O)NN=c2c3ccccc3c3nc4ccccc4nc3c3ccccc23)cc1` was tested, and the T/C [13] was 90 % of control and the T/C [14] was 98 % of control.

In the case of `O=C1CN(c2ccccc2)C(=O)CN1/N=C/c1ccc(Cl)cc1`, the T/C [15] is reported as 91 % of control, the T/C [16] is reported as 99 % of control and the T/C [17] is reported as 102 % of control.

In the case of `CN1c2ccccc2S(=O)(=O)n2c(COc3ccc(Cl)cc3)nnc21`, the T/C [11] is reported as 100 % of control, the T/C [12] is reported as 100 % of control and the T/C (dose: 50.0 mg/kg/injection, schedule: Q01DX005 (ip), vehicle: saline with Tween-80) is reported as 106 % of control.

`Cc1ccc2c(c1)C(=O)CC=C(C(=O)O)N2` was tested, and the T/C [9] was 98 % of control, the T/C [10] was 104 % of control and the T/C (dose: 400.0 mg/kg/injection, schedule: Q01DX009 (ip), vehicle: Klucel (hydroxypropylcellulose) (HPC)) was 111 % of control. The T/C (dose: 600.0 mg/kg/injection, schedule: Q01DX009 (ip), vehicle: Klucel (hydroxypropylcellulose) (HPC)) was 89 % of control.

For `CC(=O)OCC1OC(Nc2[nH]c(=O)[nH]c(=O)c2C(=O)CCl)C(OC(C)=O)C(OC(C)=O)C1OC(C)=O` (configuration not stated), the T/C (dose: 100.0 mg/kg/injection, schedule: Q04DX002 (ip), vehicle: saline with Tween-80) was 121 % of control, the T/C (dose: 200.0 mg/kg/injection, schedule: Q04DX002 (ip), vehicle: saline with Tween-80) was 111 % of control and the T/C (dose: 400.0 mg/kg/injection, schedule: Q04DX002 (ip), vehicle: saline with Tween-80) was 99 % of control.

`C=CCCCCCCCCC(=O)N(CCOC)CCOC` was tested, and the T/C (dose: 25.0 mg/kg/injection, schedule: Q04DX003 (ip), vehicle: saline with Tween-80) was 100 % of control, the T/C (dose: 50.0 mg/kg/injection, schedule: Q04DX003 (ip), vehicle: saline with Tween-80) was 100 % of control and the T/C (dose: 100.0 mg/kg/injection, schedule: Q04DX003 (ip), vehicle: saline with Tween-80) was 100 % of control.
